Reference: patent US20160022775A1, “TREATING LYSOSOMAL STORAGE DISEASE” (UNIVERSITY OF ROCHESTER, priority 2013, published 2016)

Columns and labels:
OPCs = assay: OPC division by clonal analysis in the presence of psychosine; format: cell-based, rat; conditions: OPCs grown in the presence of PDGF for 6 days
Method: As shown, by day 3 even 3.3 μM PC caused marked cell death. Division was analyzed by clonal analysis, and exposure to 1 μM PC caused a marked reduction in clonal size for cells grown in the presence of PDGF for 6 days.
(§1) Studies on division and survival of OPCs exposed to 0.1, 0.5, 1, 2, 5 or 10 μM PC, GPS or LS were conducted for 1, 2, 3 or 5 days. These experiments followed standard procedures (see Mayer et al. PNAS, 91: 7496-7500 (1994); Dietrich et al. J. Biol. 5: e22 (2006); and Han et al. J. Biol. 7 (4):12 (2008)) except that cell death was quantified using calcein AM and propidium iodide (PI) labeling of live cultures was used to identify live and dead cells, respectively. […] These dyes effectively overcome the problems with dyes for which cell numbers are inferred from metabolic activity (e.g., MTT, Alamar Blue), and provide quantitative information on cell numbers. Independent confirmation was obtained in all cases by visual examination of cultures. In these, and all other cases, all experiments were repeated at least three times, and all data points were collected in triplicate. All experiments were conducted in conditions of 5% O2, to more closely mimic physiological oxygen concentrations.

oligodendrocytes = conditions: cited from earlier work
primary OPCs = assay: Survival of OPCs exposed to toxic lipids (calcein AM / propidium iodide, CELIGO); format: cell-based
Method: Whether toxic lipids have similar effects on the function of oligodendrocyte precursor cells (OPCs, the direct ancestors of myelin-forming oligodendrocytes), due to the common features of myelin breakdown and failure to repair such damage in LSDs, was determined. These experiments all used standard techniques (see Mayer et al. PNAS, 91: 7496-7500 (1994); Ibarrola et al. Dev. Biol. 180: 1-121 (1996); Smith et al. PNAS 97: 10032-10037 (2000); Power et al. Dev. Biol. 245: 362-375 (2002); Dietrich et al. J. Biol. 5: e22 (2006); Li et al. PLoS Biol. 5: e35 (2007)), as adapted to enable rapid automated analysis of microscopy images captured using the CELIGO® imaging system (Brooks Automation, Chelmsford, Mass.). This system enables collection of data using brightfield and three-color fluorescence and provides similar information to be obtained at the single cell level in adherent cell cultures as yielded by flow cytometry. This approach enables quantitatively analysis of 80 different experimental conditions (in triplicate) per hour.
as §1
The sensitivity of primary OPCs to PC was determined. The sensitivity of the cells to glucopsychosine (GPC) and lysosulfatide (LS) was also examined. […] Thus, OPCs are even more sensitive to PC than oligodendrocytes, which are sensitive at 10 μM psychosine. More critically, they are an order of magnitude more sensitive than indicated by studies described in Zaka et al. (Mol. Cell Neurosci. 30 (3): 398-407 (2005)) on immortalized cell lines.

[1] = tested on: lysosomal pH of cells exposed to psychosine; assay: Lysosomal pH in cells exposed to psychosine; format: cell-based; conditions: cells exposed to psychosine versus normal cells
Description: The effects of cytoskeletal collapse and changes in lysosomal pH were examined. […] The agents that protect both division and survival also restore lysosomal pH to a normal range. However, […] that rescue cell division examined for their effects on lysosomal pH also restore normal levels of pH. Thus, rescuing lysosomal pH is not sufficient to rescue cell survival. Further, agents chosen solely on the basis of rescue of lysosomal pH are not sufficient to also function as rescue agents in cell survival.

[2] = tested on: oligodendrocyte progenitor cells; assay: Migration of oligodendrocyte progenitor cells outward from a drop of cells; format: cell-based; conditions: OPCs exposed to PDGF; not a lethal level
Method: Exposure of oligodendrocyte progenitor cells to 1 μM psychosine is enough to greatly reduce cell migration.
Another aspect of psychosine function is to cause alterations in the cytoskeleton, which in dividing cells is manifested as a failure of migration. The migration of oligodendrocyte progenitor cells outward from a drop of cells was examined. Cells were stained with calcein to label living cells and propidium iodide (PI) to label dead cells. […] This effect was observed on multiple cell types.

[3] = tested on: human fetal neuroepithelial stem cells (hNSCs); assay: Sensitivity of human CNS precursor cells to toxic lipids; format: cell-based
[4] = tested on: immortalized cell line characterized as an oligodendrocyte progenitor cell line; conditions: Zaka et al.; over 24 hours; cited from earlier work

SMILES: CCCCCCCCCCCCC/C=C/[C@@H](O)[C@@H](N)CO[C@@H]1O[C@H](CO)[C@H](O)[C@H](O)[C@H]1O [psychosine]
- concentration causing marked reduction in clonal size (OPCs): 1 µM
- concentration at which oligodendrocytes are sensitive (oligodendrocytes): 10 µM
- exposure level as low as which toxic for OPCs (primary OPCs): 5 µM
- concentration causing marked cell death (primary OPCs; purified OPCs, by day 3, calcein AM, CELIGO): 3.3 µM
- effect on pH of exposed cells [1]: becomes more alkaline
- concentration enough to greatly reduce cell migration [2]: 1 µM
- vulnerability of hNSCs compared with rat OPCs [3]: at least as vulnerable
- concentration at which immortalized OPC line is vulnerable / marked cell death [4]: 50 µM
